The experiment deals with 2DG hyperglycemic rats. The experiment is described as follows: anti-hyperglycemia in the 2DG hyperglycemic rats. The format is in vivo, rat. The conditions noted are these: 10 ng intracranially administered. An excerpt: Since blood glucose levels are expected to be reduced when the activity of the autonomic nervous system is controlled by carnosine at a low dose, the effect of carnosine on anti-hyperglycemia in the 2DG hyperglycemic rats was investigated according to the method of Chun et al. (Brain Research 809:165-174, 1998). Wistar male rats (initial weight, about 250 g) were used that had been acclimated for at least 10 days to an environment in a room illuminated with an incandescent light of 80 lux on the average for 12 hours at room temperature (24 +/− 1° C.) with free access to the feed.
Three days before the experiment, rats under anesthesia with pentobarbital (35 mg/kg body weight, intraperitoneal administration) received the insertion of a cardiac catheter comprising a silastic tubing (Dow Corning, Midland, Mich.) and a polyethylene tubing (Clay Adams, Parsippany, N.J.) into the right atrium and a polyethylene tubing into the right lateral cerebral ventricle (LCV). On the day of the experiment, carnosine dissolved in physiological saline was administered to the rats intracranially (0.01 ml) or intraperitoneally (0.1 ml) with the simultaneous administration into the rat LCV of 80 μmol 2-deoxy-D-glucose (2DG, 0.01 ml). The control rats received physiological saline instead of carnosine and an artificial cerebrospinal fluid in stead of 2DG, each at the same amount.
Sixty minutes after the administration of 2DG into the LCV, 300 μl of blood was taken via the cardiac catheter and the plasma level of glucose was determined. The glucose concentrations in the plasma were measured using the Fuji-Dri-chem system (Fuji Film Tokyo) according to the glucose oxidase method. Changes in plasma concentrations of glucose were expressed as a ratio (%) relative to the control value at 90 minutes after 2DG administration set at 100. Four or five rats were used in the experiments. Data were tested with ANOVA (p<0.05) and were expressed as mean +/− standard error.

Regarding `Cn1cncc1C[C@H](NC(=O)CCN)C(=O)O` [anserine, reference compound], the effect on hyperglycemia result is “did not suppress hyperglycemia”.
